Results: patent US9006228B2 (Merck Sharp & Dohme Corp., priority 2011, dated 2015)

Target: T1, human GPR119 (Homo sapiens, UniProt Q8TDV5)
T1 sequence (Q8TDV5 1-308 limits assumed): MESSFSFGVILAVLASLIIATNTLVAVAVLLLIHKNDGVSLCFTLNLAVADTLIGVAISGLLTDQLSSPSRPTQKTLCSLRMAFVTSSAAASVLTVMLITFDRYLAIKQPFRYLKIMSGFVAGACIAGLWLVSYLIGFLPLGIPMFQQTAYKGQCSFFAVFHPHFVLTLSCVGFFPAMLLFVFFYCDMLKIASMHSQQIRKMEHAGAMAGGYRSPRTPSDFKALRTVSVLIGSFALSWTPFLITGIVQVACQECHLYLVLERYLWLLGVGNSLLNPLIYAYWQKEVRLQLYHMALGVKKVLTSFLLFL
Experiment: Measurement of GPR119 signaling (cAMP assay; LANCE kit or HTRF) in HEK293 cells stably transfected with human GPR119
Format: cell-based
Settings: agonist-stimulated cAMP in HEK293 cells expressing human GPR119
Description: Measurement of GPR119 Signaling Using LANCE 384-Well cAMP Kit
The adenylate cyclase assay was constructed following the LANCE™ cAMP Kit (Perkin Elmer, AD0264) instructions. […] The reaction was stopped by incubating with the supplied detection buffer containing the europium chelate of the Eu-SA/Biotin-cAMP tracer for 3 hours. The assay was performed in duplicate in a 384 well plate for duplicate plates. Fluorescence at 665 nm was measured using a PHERAstar instrument. Basal activity was determined using a DMSO control and maximum response was defined as cAMP stimulation produced by an internal agonist control. Standard cAMP concentrations were assayed concurrently for conversion of fluorescence signal to cAMP level. The data was analyzed using 4-parameter curve fit in Microsoft Excel.
Measurement of GPR119 Signaling Using a Cyclic AMP (cAMP) Homogenous Time Resolved Fluorescence (HTRF) Assay
Chinese hamster ovary (CHO) cell lines stably transfected with the permissive guanine nucleotide binding protein alpha 15 (Gα15) and murine GPR119 were maintained in DMEM media containing FBS, penicillin-streptomycin, puromycin, and G418 (geneticin). […] Agonist activation of the GPR119 receptor was measured in receptor transfected cells described above, treated with compounds of this invention, using a commercial homogenous time resolved fluorescence (HTRF) kit for measurement of cAMP (CisBio, Bedford, Mass.). The assay was performed in 96-well half-volume plates (murine) or 384-well plates (human) following the manufacturers instructions. Briefly, suspended cells were incubated with a dose titration of test compound at RT for 60 min, lysed, and incubated with HTRF reagents for an additional 60 min. The plate was read using an Envision multilabel reader (Perkin Elmer) adjusted to read time resolved fluorescence and the cAMP concentrations were extrapolated from a cAMP calibration curve. […] The concentration of test compound required to stimulate a half-maximal response (EC50), and efficacy as compared to an internal agonist control, was determined from a sigmoidal 4-parameter curve fit of the resulting plot of normalized activity versus compound concentration.

Row | EC50 [nM] | SMILES
1 | 0.3 | CCc1cnc(N2CCC([C@H]3C[C@H]3COCc3ccc(-n4ccnn4)cc3)CC2)nc1 [Example 62, 5-ethyl-2-{4-[(1R,2R)-2-({[4-(1H-1,2,3-triazol-1-yl)benzyl]oxy}methyl)cyclopropyl]piperidin-1-yl}pyrimidine]
2 | 11 | CCc1cnc(N2CCC([C@H]3C[C@H]3COCc3ccc(C[C@@H](C)O)cc3)CC2)nc1 [Example 58, (2R)-1-{4-[({(1R,2R)-2-[1-(5-ethylpyrimidin-2-yl)piperidin-4-yl]cyclopropyl}methoxy)methyl]phenyl}propan-2-ol]
3 | 2.3 | CCS(=O)(=O)c1ccc(COC[C@@H]2C[C@@H]2C2CCN(c3nc(C4CC4)no3)CC2)cc1 [Example 29, 1-(3-cyclopropyl-1,2,4-oxadiazol-5-yl)-4-[(1R,2R)-2-({[4-(ethylsulfonyl)benzyl]oxy}methyl)cyclopropyl]piperidine]
4 | 4.7 | CC1(OC(=O)N2CCC([C@H]3C[C@H]3COCc3ccc(S(C)(=O)=O)c(F)c3)CC2)CC1 [Example 43, 1-methylcyclopropyl 4-[(1R,2R)-2-({[3-fluoro-4-(methylsulfonyl)benzyl]oxy}methyl)cyclopropyl] piperidine-1-carboxylate]
5 | 1 | CS(=O)(=O)c1ccc(COC[C@@H]2C[C@@H]2C2CCN(c3ncc(C4CC4)cn3)CC2)cc1 [Example 18, 5-cyclopropyl-2-{4-[(1R,2R)-2-({[4-(methylsulfonyl)benzyl]oxy}methyl)cyclopropyl]piperidin-1-yl}pyrimidine]
6 | 0.6 | CCc1cnc(N2CCC([C@H]3C[C@H]3COCc3ccc(S(=O)(=O)CC[C@H](C)O)cc3)CC2)nc1 [Example 64]
7 | 18 | CC(C)c1noc(N2CCC([C@H]3C[C@H]3COCc3ccc(S(=O)(=O)C4CC4)cc3)CC2)n1 [Example 25]
8 | 0.4 | CCc1cnc(N2CCC([C@H]3C[C@H]3COCc3cc(F)c(S(C)(=O)=O)c(F)c3)CC2)nc1 [Example 46]
9 | 3.7 | O=C(c1ccc(COC[C@@H]2C[C@@H]2C2CCN(c3ncc(Cl)cn3)CC2)cc1F)C1CC1 [Example 51]
10 | 15 | CC(C)(O)c1cnc(N2CCC([C@H]3C[C@H]3COCc3ccc(S(C)(=O)=O)cc3F)CC2)nc1 [Example 76]
11 | 0.72 | COC(C)c1cnc(N2CCC([C@H]3C[C@H]3COCc3ccc(S(C)(=O)=O)c(F)c3)CC2)nc1 (single isomer, unassigned) [Example 130]
12 | 2.9 | CCc1cnc(N2CCC([C@H]3C[C@H]3COCc3ccc(-c4ccnc(OC)n4)cc3F)CC2)nc1 [Example 106, 4-{4-[({(1R,2R)-2-[1-(5-ethylpyrimidin-2-yl)piperidin-4-yl]cyclopropyl}methoxy)methyl]-3-fluorophenyl}-2-methoxypyrimidine]
13 | 4 | CCc1cnc(N2CCC([C@H]3C[C@H]3COCc3ccc(-c4cnc(C)s4)cc3F)CC2)nc1 [Example 111, 5-ethyl-2-{4-[(1R,2R)-2-({[2-fluoro-4-(2-methyl-1,3-thiazol-5-yl)benzyl]oxy}methyl)cyclopropyl]piperidin-1-yl}pyrimidine]
14 | 0.19 | CCc1cnc(N2CCC([C@H]3C[C@H]3[C@@H](COC)OCc3ccc(S(C)(=O)=O)cc3)CC2)nc1 [Example 66]
15 | 5.16 | COCc1cnc(N2CCC([C@H]3C[C@H]3COCc3ccc(CC(=O)N4CCC4)cc3F)CC2)nc1 [Example 145, 1-(azetidin-1-yl)-2-(3-fluoro-4-((((1R,2R)-2-(1-(5-(methoxymethyl)pyrimidin-2-yl)piperidin-4-yl)cyclopropyl)methoxy)methyl)phenyl)ethanone]
16 | 0.1 | CCc1cnc(N2CCC([C@H]3C[C@H]3COCc3ccc(-c4cccnn4)cc3F)CC2)nc1 [Example 99, 3-{4-[({(1R,2R)-2-[1-(5-ethylpyrimidin-2-yl)piperidin-4-yl]cyclopropyl}methoxy)methyl]-3-fluorophenyl}pyridazine]
17 | 0.6 | CCS(=O)(=O)c1ccc(COC[C@@H]2C[C@@H]2C2CCN(c3nc(C4CC4)no3)CC2)cc1F [Example 39, 1-(3-cyclopropyl-1,2,4-oxadiazol-5-yl)-4-[(1R,2R)-2-({[3-fluoro-4-(ethylsulfonyl)benzyl]oxy}methyl)cyclopropyl]piperidine]
18 | 14.8 | CC(C)(C)OC(=O)N1CCC([C@H]2C[C@H]2COCc2cc(F)c(S(C)(=O)=O)c(F)c2)CC1 [Example 44, tert-butyl 4-[(1R,2R)-2-({[3,5-difluoro-4-(methylsulfonyl)benzyl]oxy}methyl)cyclopropyl]piperidine-1-carboxylate]
19 | 0.6 | CS(=O)(=O)c1c(F)cc(COC[C@@H]2C[C@@H]2C2CCN(c3ncc(Cl)cn3)CC2)cc1F [Example 45, 5-chloro-2-{4-[(1R,2R)-2-({[3,5-difluoro-4-(methylsulfonyl)benzyl]oxy}methyl)cyclopropyl]piperidin-1-yl}pyrimidine]
20 | 1.2 | CCc1cnc(N2CCC([C@H]3C[C@H]3COCc3ccc(S(=O)(=O)C4CC4)cc3)CC2)nc1 [Example 56, 2-{4-[(1R,2R)-2-({[4-(cyclopropylsulfonyl)benzyl]oxy}methyl)cyclopropyl]piperidin-1-yl}-5-ethylpyrimidine]
21 | 0.74 | CCc1cnc(N2CCC([C@H]3C[C@H]3COCc3ccc(S(C)(=O)=O)cc3)CC2)nc1 [Example 20, 5-ethyl-2-{4-[(1R,2R)-2-({[4-(methylsulfonyl)benzyl]oxy}methyl)cyclopropyl]piperidin-1-yl}pyrimidine]
22 | 2.8 | CCc1noc(N2CCC([C@H]3C[C@H]3COCc3ccc(S(C)(=O)=O)cc3)CC2)n1 [Example 30, 1-(3-ethyl-1,2,4-oxadiazol-5-yl)-4-[(1R,2R)-2-({[4-(methylsulfonyl)benzyl]oxy}methyl)cyclopropyl]piperidine]
23 | 0.6 | CCc1cnc(N2CCC([C@H]3C[C@H]3COCc3ccc(-c4ccnnc4)cc3F)CC2)nc1 [Example 102, 4-{4-[({(1R,2R)-2-[1-(5-ethylpyrimidin-2-yl)piperidin-4-yl]cyclopropyl}methoxy)methyl]-3-fluorophenyl}pyridazine]
24 | 8.2 | CS(=O)(=O)c1ccc(COC[C@@H]2C[C@@H]2C2CCN(C(=O)OC3CCC3)CC2)cc1 [Example 12, cyclobutyl 4-[(1R,2R)-2-({[4-(methylsulfonyl)benzyl]oxy}methyl)cyclopropyl]piperidine-1-carboxylate]

Row | SMILES | EC50 [nM]
25 | CCc1cnc(N2CCC([C@H]3C[C@H]3COCc3ccc(S(C)(=O)=O)cn3)CC2)nc1 [Example 3, 5-ethyl-2-{4-[(1R,2R)-2-({[5-(methylsulfonyl)pyridin-2-yl]methoxy}methyl)cyclopropyl]piperidin-1-yl}pyrimidine] | 1.5
26 | CC1(OC(=O)N2CCC([C@H]3C[C@H]3COCc3ccc(-n4cnnn4)cc3F)CC2)CC1 [Example 136, 1-methylcyclopropyl 4-((1R,2R)-2-((2-fluoro-4-(1H-tetrazol-1-yl)benzyloxy)methyl)cyclopropyl)piperidine-1-carboxylate] | 4.8
27 | CCOc1cnc(N2CCC([C@H]3C[C@H]3COCc3ccc(S(C)(=O)=O)c(F)c3)CC2)nc1 [Example 129, 5-ethoxy-2-(4-((1R,2R)-2-(((3-fluoro-4-(methylsulfonyl)benzyl)oxy)methyl)cyclopropyl)piperidin-1-yl)pyrimidine] | 1.65
28 | CC(C)(O)CSc1ccc(COC[C@@H]2C[C@@H]2C2CCN(C(=O)OC(C)(C)C)CC2)cc1 [Example 92] | 20.3
29 | COCc1cnc(N2CCC([C@H]3C[C@H]3COCc3ccc(-n4cnnn4)c(F)c3)CC2)nc1 [Example 132, 2-(4-((1R,2R)-2-((3-fluoro-4-(1H-tetrazol-1-yl)benzyloxy)methyl)cyclopropyl)piperidin-1-yl)-5-(methoxymethyl)pyrimidine] | 1.1
30 | CC(C)c1noc(N2CCC([C@H]3C[C@H]3COCc3ccc(-n4cnnn4)cc3F)CC2)n1 [Example 134, 5-(4-((1R,2R)-2-((2-fluoro-4-(1H-tetrazol-1-yl)benzyloxy)methyl)cyclopropyl)piperidin-1-yl)-3-isopropyl-1,2,4-oxadiazole] | 1.7
